In patent US20240150345A1, “GCN2 MODULATING COMPOUNDS AND USES THEREOF” (HiberCell, Inc., priority 2021, published 2024) one finds IC50 data, which are given here for 27 compounds.

The target of the test is T1, GCN2 (Homo sapiens, UniProt Q9P2K8).
T1 construct: purchased Carma Biosciences (so in the source)
T1 sequence (Q9P2K8 whole entry): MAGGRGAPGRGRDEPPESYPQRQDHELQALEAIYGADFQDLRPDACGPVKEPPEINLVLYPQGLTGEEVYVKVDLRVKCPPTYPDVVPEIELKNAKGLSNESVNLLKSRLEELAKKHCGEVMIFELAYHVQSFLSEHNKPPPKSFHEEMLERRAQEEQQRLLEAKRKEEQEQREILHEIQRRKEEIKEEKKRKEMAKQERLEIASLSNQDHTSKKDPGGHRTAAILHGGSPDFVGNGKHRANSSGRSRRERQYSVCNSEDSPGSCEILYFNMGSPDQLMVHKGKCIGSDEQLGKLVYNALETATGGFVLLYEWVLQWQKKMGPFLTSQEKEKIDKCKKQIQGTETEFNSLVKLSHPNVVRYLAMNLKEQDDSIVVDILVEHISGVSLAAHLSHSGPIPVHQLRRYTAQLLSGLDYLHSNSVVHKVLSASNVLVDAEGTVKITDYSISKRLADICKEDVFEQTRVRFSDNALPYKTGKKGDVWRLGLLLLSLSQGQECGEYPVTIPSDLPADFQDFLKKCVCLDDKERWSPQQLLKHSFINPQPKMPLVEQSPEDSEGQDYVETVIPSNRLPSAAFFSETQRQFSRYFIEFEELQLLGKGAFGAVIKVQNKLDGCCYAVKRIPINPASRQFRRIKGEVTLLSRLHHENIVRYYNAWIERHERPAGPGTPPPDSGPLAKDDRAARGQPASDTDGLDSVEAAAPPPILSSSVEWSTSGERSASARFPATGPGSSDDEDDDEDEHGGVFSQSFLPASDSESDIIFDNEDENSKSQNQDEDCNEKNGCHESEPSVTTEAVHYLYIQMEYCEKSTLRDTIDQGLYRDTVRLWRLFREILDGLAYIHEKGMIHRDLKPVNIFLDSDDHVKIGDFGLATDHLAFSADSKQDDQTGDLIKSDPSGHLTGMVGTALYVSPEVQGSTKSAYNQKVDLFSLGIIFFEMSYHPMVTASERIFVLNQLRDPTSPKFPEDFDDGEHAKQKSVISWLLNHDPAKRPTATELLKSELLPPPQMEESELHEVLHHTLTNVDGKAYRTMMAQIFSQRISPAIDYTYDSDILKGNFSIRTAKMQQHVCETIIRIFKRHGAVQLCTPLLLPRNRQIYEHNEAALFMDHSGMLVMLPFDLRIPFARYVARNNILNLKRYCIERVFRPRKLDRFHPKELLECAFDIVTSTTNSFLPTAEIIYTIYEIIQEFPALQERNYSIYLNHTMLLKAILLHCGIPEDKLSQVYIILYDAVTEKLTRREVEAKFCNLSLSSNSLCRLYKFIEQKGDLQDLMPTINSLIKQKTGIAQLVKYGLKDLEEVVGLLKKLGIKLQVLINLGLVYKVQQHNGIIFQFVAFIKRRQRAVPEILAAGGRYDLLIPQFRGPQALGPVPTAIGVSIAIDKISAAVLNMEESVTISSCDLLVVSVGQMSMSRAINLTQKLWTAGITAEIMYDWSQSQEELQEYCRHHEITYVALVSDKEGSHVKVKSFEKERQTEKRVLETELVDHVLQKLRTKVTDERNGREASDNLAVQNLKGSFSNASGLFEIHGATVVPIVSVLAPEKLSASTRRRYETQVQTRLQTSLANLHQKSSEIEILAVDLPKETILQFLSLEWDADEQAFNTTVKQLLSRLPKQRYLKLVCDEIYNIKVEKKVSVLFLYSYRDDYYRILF
The test can be described thus: TR-FRET biochemical assay for inhibition of GCN2 activity. Conditions: 2 nM GCN2, 100 nM GFP-eIF2α, 150 μM ATP, 1.5 hours at 25° C. How it is done:
Exemplary compounds from the above Examples were tested for ability to inhibit GCN2 activity using a time resolved fluorescence energy transfer (TR-FRET) assay. Assay procedures and results are described below for Examples 12-105.
GCN2 protein was obtained from Carma Biosciences (cat #05-153). The protein was diluted in assay buffer (ThermoFisher Scientific, #PV6135), 2 mM dithiothreitol (DTT), to obtain a final concentration of 2 nM and 5 μL was plated in a 384-well white assay plate. Test compounds were serially diluted to 11 concentrations by 3-fold dilution in DMS0 and 10 nL of stock was plated into 384 well white assay plate. DMS0 was used as a vehicle control. GFP-eIF2α protein was obtained from ThermoFisher (cat #PV4809). The protein was diluted in assay buffer to a 2× concentration of 200 nM along with 300 μM ATP (final concentration of 100 nM GFP-eIF2α and 150 μM ATP) in the presence of 2 mM DTT and a […] was added to each well containing the GCN2 protein and test compound. The plate was incubated in the dark at 25° C. for 1.5 hours, shaking at 1250 rpm. Tb-anti P-eIF2α (ThermoFisher cat #PV4815) was diluted to a to a concentration of 1 nM in TR-FRET Dilution Buffer (ThermoFisher cat #PV3574). 10 μL of the Tb-anti P-eIF2a solution was added to the TR-FRET reaction. The plate was incubated in the dark for 2 h at 25° C. shaking at 600 rpm. The FRET signal from the plate was read on a Envision (PerkinElmer) plate reader: • Label 1: Excitation: 340 nm, bandwidth 30 nm; Emission: 495 nm, bandwidth 10 nm. Lag time: 100 μsec. Integration time: 400 μsec. Flashes: 30. • Label 2: Excitation: 340 nm, bandwidth 30 nm; Emission: 520 nm, bandwidth 25 nm. Lag time: 100 μsec. Integration time: 400 μsec. Flashes: 30
The data were analyzed using GraphPad Prism employing a 4-parameter sigmoidal curve fit.
For orientation: In TR-FRET formats the signal depends on donor and acceptor labels being close together.
Compound `COc1ncc(Cl)cc1S(=O)(=O)Nc1ccc(F)c(C(C)Nc2cnc3[nH]ncc3c2)c1F` (stereo not drawn) [Compound 29, 5-chloro-N-[2,4-difluoro-3-(1-[1H-pyrazolo[3,4-b]pyridin-5-ylamino]ethyl)phenyl]-2-methoxypyridine-3-sulfonamide] returned an IC50 of more than 1000 nM.
`Cc1ncc(F)cc1S(=O)(=O)Nc1ccc(F)c(COc2cnc3[nH]ncc3c2)c1F` [Compound 30, N-(3-(((1H-pyrazolo[3,4-b]pyridin-5-yl)oxy)methyl)-2,4-difluorophenyl)-5-fluoro-2-methylpyridine-3-sulfonamide]: the half-inhibitory concentration (IC50) is less than 50 nM.
With `CNc1nccn2c(CCc3c(F)ccc(NS(=O)(=O)c4cc(Cl)cnc4OC)c3F)cnc12` [Compound 31, 5-chloro-N-(2,4-difluoro-3-(2-(8-(methylamino)imidazo[1,2-a]pyrazin-3-yl)ethyl)phenyl)-2-methoxypyridine-3-sulfonamide] the figure was less than 50 nM; with `COc1ncc(Cl)cc1S(=O)(=O)Nc1ccc(F)c(CCc2cnc3c(N)nccn23)c1F` [Compound 32, N-[3-(2-[8-aminoimidazo[1,2-a]pyrazin-3-yl]ethyl)-2,4-difluorophenyl]-5-chloro-2-methoxypyridine-3-sulfonamide], less than 50 nM.
Compound `CCn1ncc2ncc(CCc3c(F)ccc(NS(=O)(=O)c4cc(Cl)cnc4OC)c3F)cc21` [Compound 33, 5-chloro-N-[3-(2-[1-ethylpyrazolo[4,3-b]pyridin-6-yl]ethyl)-2,4-difluorophenyl]-2-methoxypyridine-3-sulfonamide] came in with a half-inhibitory concentration (IC50) of less than 50 nM.
In the case of `CCn1ncc2ncc(CCc3c(F)ccc(NS(=O)(=O)c4cc(F)cnc4OC)c3F)cc21` [Compound 34, N-[3-(2-[1-ethylpyrazolo[4,3-b]pyridin-6-yl]ethyl)-2,4-difluorophenyl]-5-fluoro-2-methoxypyridine-3-sulfonamide], the concentration for half-maximal inhibition (IC50) was less than 50 nM.
Compound `COc1ncc(Cl)cc1S(=O)(=O)Nc1ccc(F)c(CCc2cnc3cnn(C(C)C)c3c2)c1F` [Compound 35, 5-chloro-N-[2,4-difluoro-3-(2-[1-isopropylpyrazolo[4,3-b]pyridin-6-yl]ethyl)phenyl]-2-methoxypyridine-3-sulfonamide] returned an IC50 of less than 50 nM.
As for `COc1ncc(F)cc1S(=O)(=O)Nc1ccc(F)c(CCc2cnc3cnn(C(C)C)c3c2)c1F` [Compound 36, N-[2,4-difluoro-3-(2-[1-isopropylpyrazolo[4,3-b]pyridin-6-yl]ethyl)phenyl]-5-fluoro-2-methoxypyridine-3-sulfonamide], the IC50 lay within 50 to 500 nM.
For the compound `COc1ncc(F)cc1S(=O)(=O)Nc1ccc(F)c(CCc2cnc3cn(C(C)C)nc3c2)c1F` [Compound 37, N-[2,4-difluoro-3-(2-[2-isopropylpyrazolo[4,3-b]pyridin-6-yl]ethyl)phenyl]-5-fluoro-2-methoxypyridine-3-sulfonamide], the half-inhibitory concentration (IC50) fell in the range of 50 to 500 nM.
In the case of `Cc1ncc(F)cc1S(=O)(=O)Nc1ccc(F)c(COc2cnc3[nH]nc(C)c3c2)c1F` [Compound 38, N-[2,4-difluoro-3-[([3-methyl-1H-pyrazolo[3,4-b]pyridin-5-yl]oxy)methyl]phenyl]-5-fluoro-2-methylpyridine-3-sulfonamide], the IC50 was less than 50 nM.
For `CCc1n[nH]c2ncc(OCc3c(F)ccc(NS(=O)(=O)c4cc(F)cnc4OC)c3F)cc12` [Compound 39, N-[3-[([3-ethyl-1H-pyrazolo[3,4-b]pyridin-5-yl]oxy)methyl]-2,4-difluorophenyl]-5-fluoro-2-methoxypyridine-3-sulfonamide], the half-inhibitory concentration (IC50) is less than 50 nM.
Consider `CCc1n[nH]c2ncc(OCc3c(F)ccc(NS(=O)(=O)c4cc(Cl)cnc4OC)c3F)cc12` [Compound 40, 5-chloro-N-[3-[([3-ethyl-1H-pyrazolo[3,4-b]pyridin-5-yl]oxy)methyl]-2,4-difluorophenyl]-2-methoxypyridine-3-sulfonamide], for which the IC50 is less than 50 nM.
Consider `CCc1n[nH]c2ncc(OCc3c(F)ccc(NS(=O)(=O)c4cc(C#N)cnc4OC)c3F)cc12` [Compound 41, 5-cyano-N-[3-[([3-ethyl-1H-pyrazolo[3,4-b]pyridin-5-yl]oxy)methyl]-2,4-difluorophenyl]-2-methoxypyridine-3-sulfonamide], for which the half-inhibitory concentration (IC50) was less than 50 nM.
The compound `COc1ncc(Cl)cc1S(=O)(=O)Nc1ccc(F)c(COc2cnc3cnn(C)c3c2)c1F` [Compound 42, 5-chloro-N-[2,4-difluoro-3-[([1-methylpyrazolo[4,3-b]pyridin-6-yl]oxy)methyl]phenyl]-2-methoxypyridine-3-sulfonamide] showed a half-maximal inhibitory concentration (IC50) of less than 50 nM.
As for `COc1ncc(F)cc1S(=O)(=O)Nc1ccc(F)c(COc2cnc3cnn(C)c3c2)c1F` [Compound 43, N-[2,4-difluoro-3-[([1-methylpyrazolo[4,3-b]pyridin-6-yl]oxy)methyl]phenyl]-5-fluoro-2-methoxypyridine-3-sulfonamide], the IC50 was less than 50 nM.
For the compound `COc1ncc(F)cc1S(=O)(=O)Nc1ccc(F)c(COc2cnc3[nH]nc(C(F)(F)F)c3c2)c1F` [Compound 44, N-[2,4-difluoro-3-([[3-(trifluoromethyl)-1H-pyrazolo[3,4-b]pyridin-5-yl]oxy]methyl)phenyl]-5-fluoro-2-methoxypyridine-3-sulfonamide], the IC50 was less than 50 nM.
`COc1ncc(F)cc1S(=O)(=O)Nc1ccc(F)c(OCc2cnc3[nH]nc(C)c3c2)c1F` [Compound 45, N-[2,4-difluoro-3-([3-methyl-1H-pyrazolo[3,4-b]pyridin-5-yl]methoxy)phenyl]-5-fluoro-2-methoxypyridine-3-sulfonamide] showed an IC50 of less than 50 nM.
`COc1ncc(Cl)cc1S(=O)(=O)Nc1ccc(F)c(OCc2cnc3[nH]nc(C)c3c2)c1F` [Compound 46, 5-chloro-N-[2,4-difluoro-3-([3-methyl-1H-pyrazolo[3,4-b]pyridin-5-yl]methoxy)phenyl]-2-methoxypyridine-3-sulfonamide] gave a half-maximal inhibitory concentration (IC50) of less than 50 nM.
As to `CCc1n[nH]c2ncc(OCc3c(F)ccc(NS(=O)(=O)c4cc(F)cnc4C)c3F)cc12` [Compound 47, N-[3-[([3-ethyl-1H-pyrazolo[3,4-b]pyridin-5-yl]oxy)methyl]-2,4-difluorophenyl]-5-fluoro-2-methylpyridine-3-sulfonamide], the IC50 is less than 50 nM.
The compound `COc1ncc(C#N)cc1S(=O)(=O)Nc1ccc(F)c(OCc2cnc3[nH]nc(C)c3c2)c1F` [Compound 48, 5-cyano-N-(2,4-difluoro-3-((3-methyl-1H-pyrazolo[3,4-b]pyridin-5-yl)methoxy)phenyl)-2-methoxypyridine-3-sulfonamide] showed an IC50 of 50 to 500 nM.
Consider `COc1ncc(C#N)cc1S(=O)(=O)Nc1ccc(F)c(NCc2cnc3[nH]nc(C)c3c2)c1F` [Compound 49, 5-cyano-N-[2,4-difluoro-3-[([3-methyl-1H-pyrazolo[3,4-b]pyridin-5-yl]methyl)amino]phenyl]-2-methoxypyridine-3-sulfonamide], for which the IC50 fell in the range of 50 to 500 nM.
`COc1ncc(C#N)cc1S(=O)(=O)Nc1ccc(F)c(COc2cnc3[nH]nc(C)c3c2)c1F` [Compound 50, 5-cyano-N-[2,4-difluoro-3-[([3-methyl-1H-pyrazolo[3,4-b]pyridin-5-yl]oxy)methyl]phenyl]-2-methoxypyridine-3-sulfonamide] gave an IC50 of less than 50 nM.
On to `Cc1ncc(F)cc1S(=O)(=O)Nc1ccc(F)c(OCc2cnc3[nH]nc(C)c3c2)c1F` [Compound 51, N-[2,4-difluoro-3-([3-methyl-1H-pyrazolo[3,4-b]pyridin-5-yl]methoxy)phenyl]-5-fluoro-2-methylpyridine-3-sulfonamide], for which the 50% inhibitory concentration (IC50) is 50 to 500 nM.
In turn, `COc1ncc(F)cc1S(=O)(=O)Nc1ccc(F)c(COc2cnc3[nH]nc(C(C)C)c3c2)c1F` [Compound 52, N-[2,4-difluoro-3-[([3-isopropyl-1H-pyrazolo[3,4-b]pyridin-5-yl]oxy)methyl]phenyl]-5-fluoro-2-methoxypyridine-3-sulfonamide] gave an IC50 of less than 50 nM.
With `COc1ncc(Cl)cc1S(=O)(=O)Nc1ccc(F)c(COc2cnc3[nH]nc(C(C)C)c3c2)c1F` [Compound 53, 5-chloro-N-[2,4-difluoro-3-[([3-isopropyl-1H-pyrazolo[3,4-b]pyridin-5-yl]oxy)methyl]phenyl]-2-methoxypyridine-3-sulfonamide] the figure was less than 50 nM.
`Cc1ncc(F)cc1S(=O)(=O)Nc1ccc(F)c(COc2cnc3[nH]nc(C(C)C)c3c2)c1F` [Compound 54, N-[2,4-difluoro-3-[([3-isopropyl-1H-pyrazolo[3,4-b]pyridin-5-yl]oxy)methyl]phenyl]-5-fluoro-2-methylpyridine-3-sulfonamide] yielded a half-maximal inhibitory concentration (IC50) of less than 50 nM.
As for `COc1ncc(C#N)cc1S(=O)(=O)Nc1ccc(F)c(COc2cnc3[nH]nc(C(C)C)c3c2)c1F` [Compound 55, 5-cyano-N-[2,4-difluoro-3-[([3-isopropyl-1H-pyrazolo[3,4-b]pyridin-5-yl]oxy)methyl]phenyl]-2-methoxypyridine-3-sulfonamide], the concentration for half-maximal inhibition (IC50) was 50 to 500 nM.

For orientation: IC50 means the midpoint of a concentration-inhibition curve. A low value points to greater potency.
